Measured values published in patent US20230000842A1, “METHODS OF TREATING CARTILAGE DISORDERS THROUGH INHIBITION OF CLK AND DYRK” (SAMUMED, LLC, priority 2019, published 2023).

How the values were obtained:
CLK2 kinase = CLK2 kinase (Homo sapiens, UniProt P49760); test: CLK2 kinase activity assay (Z-lyte FRET); format: biochemical; details: Z-lyte Ser/Thr 6 peptide, 60 μM ATP, 1 h at room temperature;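 note: FRET read-out as coumarin to fluorescein emission ratio, unphosphorylated peptide as 0% and phosphorylated peptide as 100% controls, duplicate reactions, non-linear regression fit of dose-response curves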
CLK3 kinase = CLK3 kinase (Homo sapiens, UniProt P49761); test: CLK3 kinase activity assay (Z-lyte FRET); format: biochemical; details: Z-lyte Ser/Thr 18 peptide, 156 μM ATP, 1 h at room temperature;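 note: kinase activity read as coumarin/fluorescein emission ratio by FRET, unphosphorylated peptide as 0% and phosphorylated peptide as 100% control, values from non-linear regression of dose-response curves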
[1] = test system: primary human mesenchymal stem cells (hMSCs); test: Chondrogenesis screening using primary human mesenchymal stem cells; format: cell-based; details: Homo sapiens, Mesenchymal stem cells, hMSC chondrogenesis; for Emax: maximum activity relative to TGF-β3 (10 ng/mL) positive control, read-out: Max. Activity as % TGF-β3 activity; for EC50: concentration required to induce 50% levels of chondrogenesis with TGF-β3 as positive control, read-out: Conc (nM) of 50% TGF-β3 activity
How it was run: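 Derived values are EC50 for 50% chondrogenesis, maximal activity and the dose giving it. These come from nodule area in passage 3–6 primary hMSCs, expressed as fold change over the mean of 3 same-plate DMSO wells, 2–3 replicates per concentration. TGF-β3 served as positive control.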

[2] = test system: Wnt pathway activity (SW480 colon carcinoma cells stably expressing the Sp5-Luc reporter); test: Wnt pathway activity screening assay (Sp5-Luc reporter gene assay); details: Homo sapiens, SW480, Table 4; SW480 cells stably expressing Sp5-Luc reporter, 10-point dose-response from 10 μM, 36 to 48 hours

CLK2 kinase, sequence (P49760 whole entry): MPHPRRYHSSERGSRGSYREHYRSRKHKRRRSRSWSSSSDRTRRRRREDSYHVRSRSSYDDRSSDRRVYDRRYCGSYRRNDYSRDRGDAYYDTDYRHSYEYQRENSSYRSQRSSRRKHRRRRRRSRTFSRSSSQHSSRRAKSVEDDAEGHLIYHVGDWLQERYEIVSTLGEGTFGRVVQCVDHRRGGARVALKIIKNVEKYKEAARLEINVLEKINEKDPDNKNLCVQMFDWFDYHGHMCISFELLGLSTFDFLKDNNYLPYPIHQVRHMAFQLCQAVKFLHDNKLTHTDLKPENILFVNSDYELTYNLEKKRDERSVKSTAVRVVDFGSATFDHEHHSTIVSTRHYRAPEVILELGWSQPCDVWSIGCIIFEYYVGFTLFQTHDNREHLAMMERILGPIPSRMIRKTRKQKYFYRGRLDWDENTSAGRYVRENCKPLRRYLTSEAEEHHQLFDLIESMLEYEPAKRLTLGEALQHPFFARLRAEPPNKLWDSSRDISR
CLK3 kinase, sequence (P49761 whole entry): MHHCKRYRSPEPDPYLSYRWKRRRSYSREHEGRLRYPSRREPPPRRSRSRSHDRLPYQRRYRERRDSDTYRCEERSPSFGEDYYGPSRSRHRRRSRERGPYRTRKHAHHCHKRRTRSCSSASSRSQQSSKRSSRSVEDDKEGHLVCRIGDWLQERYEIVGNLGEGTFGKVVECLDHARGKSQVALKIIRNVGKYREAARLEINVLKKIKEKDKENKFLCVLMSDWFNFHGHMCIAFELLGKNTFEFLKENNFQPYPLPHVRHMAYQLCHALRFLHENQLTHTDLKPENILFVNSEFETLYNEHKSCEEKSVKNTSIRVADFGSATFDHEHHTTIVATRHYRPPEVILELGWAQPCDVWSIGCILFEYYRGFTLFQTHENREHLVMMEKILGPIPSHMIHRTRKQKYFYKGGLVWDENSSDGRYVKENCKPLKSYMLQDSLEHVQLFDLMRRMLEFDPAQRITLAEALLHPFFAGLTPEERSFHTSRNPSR

EC50 (CLK2 kinase) | EC50 (CLK3 kinase) | EC50 [2] | EC50 [1] | SMILES | Emax [1]
8 nM | 201 nM | > 10000 nM |  | CCCCC(=O)Nc1cncc(-c2cnc3[nH]nc(-c4cc5c(-c6ccncc6)cncc5[nH]4)c3c2)c1 [compound 386] | 70.4%
5 nM | 132 nM | > 10000 nM |  | CC(C)CC(=O)Nc1cncc(-c2ccc3[nH]nc(-c4cc5c(-c6ccncc6)nccc5[nH]4)c3c2)c1 [compound 387] | 95.5%
4 nM | 29 nM | 875 nM |  | CC(C)CC(=O)Nc1cncc(-c2ccc3[nH]nc(-c4cc5c(-c6ccncc6)cncc5[nH]4)c3c2)c1 [compound 388] | 70.2%
9 nM | 9910 nM | 711 nM | 30 nM | CC(C)CC(=O)Nc1cncc(-c2cnc3[nH]nc(-c4cc5c(-c6ccncc6)cccc5[nH]4)c3c2)c1 [compound 389] | 71.4%
11 nM | 137 nM | > 10000 nM |  | CC(C)(C)C(=O)Nc1cncc(-c2ccc3[nH]nc(-c4cc5c(-c6ccncc6)ccnc5[nH]4)c3c2)c1 [compound 390] | 44.4%
4 nM | 62 nM | > 10000 nM |  | CC(C)(C)C(=O)Nc1cncc(-c2cnc3[nH]nc(-c4cc5c(-c6ccncc6)cncc5[nH]4)c3c2)c1 [compound 391] | 33.6%
9 nM | 92 nM | > 10000 nM |  | CC(C)(C)C(=O)Nc1cncc(-c2cc3c(-c4cc5c(-c6ccncc6)cncc5[nH]4)n[nH]c3cn2)c1 [compound 392] | 30.4%
5 nM | 30 nM | > 10000 nM |  | O=C(Nc1cncc(-c2ccc3[nH]nc(-c4cc5c(-c6ccncc6)nccc5[nH]4)c3c2)c1)C1CCCC1 [compound 395] | 114%
3 nM | 56 nM | 1060 nM |  | CN(C)Cc1cncc(-c2ccc3[nH]nc(-c4cc5c(-c6ccncc6)cncc5[nH]4)c3c2)c1 [compound 398] | 17.8%
4 nM | 188 nM | > 10000 nM | 30 nM | CN(C)Cc1cncc(-c2cc3c(-c4cc5c(-c6ccncc6)cncc5[nH]4)n[nH]c3cn2)c1 [compound 399] | 51.7%
12 nM | 180 nM | > 10000 nM |  | CN(C)Cc1cncc(-c2cc3c(-c4cc5c(-c6ccncc6)ccnc5[nH]4)n[nH]c3cn2)c1 [compound 400] | 33.4%
15 nM | 895 nM | 708 nM |  | FC1(F)CCN(Cc2cncc(-c3cnc4[nH]nc(-c5cc6c(-c7ccncc7)cccc6[nH]5)c4c3)c2)C1 [compound 401] | 29.2%
5 nM | 110 nM | 1510 nM |  | FC1(F)CCN(Cc2cncc(-c3cnc4[nH]nc(-c5cc6c(-c7ccncc7)cncc6[nH]5)c4c3)c2)C1 [compound 402] | 36.5%
6 nM | 306 nM | > 10000 nM | 10 nM | c1cc(-c2cncc3[nH]c(-c4n[nH]c5ccc(-c6cncc(CN7CCCCC7)c6)nc45)cc23)ccn1 [compound 403] | 97.1%
3 nM | 227 nM | > 10000 nM |  | Cc1ncc(-c2cnc3[nH]nc(-c4cc5c(-c6ccncc6)cncc5[nH]4)c3c2)n1C [compound 406] | 194%
3 nM | 19 nM | 22.4 nM |  | Nc1cncc(-c2ccc3[nH]nc(-c4cc5c(-c6ccccn6)ccnc5[nH]4)c3c2)c1 [compound 407] | 46.1%
2 nM | 32 nM | 1440 nM |  | O=C(CC1CCNCC1)Nc1cncc(-c2ccc3[nH]nc(-c4cc5c(-c6ccccn6)cccc5[nH]4)c3n2)c1 [compound 408] | 8.03%
5 nM | 142 nM | 432 nM | 10 nM | FC1(F)CCN(Cc2cncc(-c3ccc4[nH]nc(-c5cc6c(-c7ccccn7)cccc6[nH]5)c4n3)c2)C1 [compound 409] | 81.9%
1 nM | 15 nM | 40 nM |  | c1cncc(-c2ccc3[nH]nc(-c4cc5cnccc5[nH]4)c3c2)c1 [compound 410] | 342%
5 nM | 351 nM | 1060 nM |  | c1cncc(-c2cnc3[nH]nc(-c4cc5cccnc5[nH]4)c3c2)c1 [compound 411] | 11%
2 nM | 88 nM | 133 nM | 30 nM | c1cncc(-c2cc3c(-c4cc5cnccc5[nH]4)n[nH]c3cn2)c1 [compound 412] | 62%

EC50 (CLK2 kinase) | EC50 (CLK3 kinase) | EC50 [2] | EC50 [1] | SMILES | Emax [1]
4 nM | 5490 nM | > 10000 nM |  | c1cncc(-c2cc3c(-c4cc5cccnc5[nH]4)n[nH]c3cn2)c1 [compound 413] | 27.6%
3 nM | 1360 nM | > 10000 nM | 10 nM | c1cncc(-c2ccc3[nH]nc(-c4cc5cccnc5[nH]4)c3n2)c1 [compound 414] | 65.9%
1 nM | 31 nM | 191 nM |  | Cc1ccncc1-c1ccc2[nH]nc(-c3cc4ccncc4[nH]3)c2c1 [compound 415] | 161%
3 nM | 61 nM | 389 nM | 10 nM | Cc1ccncc1-c1cc2c(-c3cc4cnccc4[nH]3)n[nH]c2cn1 [compound 416] | 61.4%
3 nM | 73 nM | 102 nM |  | Nc1cncc(-c2ccc3[nH]nc(-c4cc5cccnc5[nH]4)c3c2)c1 [compound 417] | 35.5%
2 nM | 41 nM | 960 nM |  | CCC(=O)Nc1cncc(-c2cnc3[nH]nc(-c4cc5cnccc5[nH]4)c3c2)c1 [compound 418] | 16.9%
1 nM | 16 nM | 399 nM | 30 nM | CC(C)C(=O)Nc1cncc(-c2cc3c(-c4cc5cnccc5[nH]4)n[nH]c3cn2)c1 [compound 419] | 61.2%
11 nM | 344 nM | 324 nM |  | CCCCC(=O)Nc1cncc(-c2ccc3[nH]nc(-c4cc5cccnc5[nH]4)c3c2)c1 [compound 420] | 34.1%
3 nM | 83 nM | 1470 nM |  | CCCCC(=O)Nc1cncc(-c2cnc3[nH]nc(-c4cc5cnccc5[nH]4)c3c2)c1 [compound 421] | 30.8%
3 nM | 54 nM | 3570 nM |  | CCCCC(=O)Nc1cncc(-c2cc3c(-c4cc5cnccc5[nH]4)n[nH]c3cn2)c1 [compound 422] | 49.9%
21 nM | 6210 nM | > 10000 nM |  | CC(C)CC(=O)Nc1cncc(-c2cc3c(-c4cc5cccnc5[nH]4)n[nH]c3cn2)c1 [compound 423] | 40.4%
2 nM | 47 nM | 605 nM |  | CC(C)(C)CC(=O)Nc1cncc(-c2cnc3[nH]nc(-c4cc5cnccc5[nH]4)c3c2)c1 [compound 424] | 7.07%
3 nM | 56 nM | 1890 nM | 10 nM | CC(C)(C)CC(=O)Nc1cncc(-c2cc3c(-c4cc5cnccc5[nH]4)n[nH]c3cn2)c1 [compound 425] | 58.8%
5 nM | 88 nM | 1540 nM | 30 nM | O=C(Nc1cncc(-c2cc3c(-c4cc5cnccc5[nH]4)n[nH]c3cn2)c1)C1CC1 [compound 426] | 58.5%
9 nM | 9840 nM | > 10000 nM |  | O=C(Nc1cncc(-c2cc3c(-c4cc5cccnc5[nH]4)n[nH]c3cn2)c1)C1CC1 [compound 427] | 17.7%
2 nM | 19 nM | 75 nM |  | O=C(Nc1cncc(-c2ccc3[nH]nc(-c4cc5cnccc5[nH]4)c3c2)c1)C1CCC1 [compound 428] | 213%
9 nM | 365 nM | 271 nM |  | O=C(Nc1cncc(-c2ccc3[nH]nc(-c4cc5cccnc5[nH]4)c3c2)c1)C1CCCC1 [compound 429] | 30.2%
7 nM | 147 nM | 2630 nM | 30 nM | O=C(Nc1cncc(-c2ccc3[nH]nc(-c4cc5ccncc5[nH]4)c3n2)c1)C1CCCC1 [compound 430] | 50.3%
17 nM | 2970 nM | 1260 nM |  | O=C(Nc1cncc(-c2cnc3[nH]nc(-c4cc5cccnc5[nH]4)c3c2)c1)C1CCCCC1 [compound 432] | 28.5%
3 nM | 62 nM | 1620 nM | 30 nM | O=C(Nc1cncc(-c2cc3c(-c4cc5cnccc5[nH]4)n[nH]c3cn2)c1)C1CCCCC1 [compound 433] | 59.4%
5 nM | 189 nM | 1760 nM |  | O=C(Cc1ccccc1)Nc1cncc(-c2ccc3[nH]nc(-c4cc5cnccc5[nH]4)c3c2)c1 [compound 434] | 119%
